Data set [1] is described as follows: Locus of 3-O-methyl sorbitollysine uptake in vivo (tissue, urine, plasma analysis). Details: species or system rats. Here is the method: Six rats were injected intraperitoneally with […] (4.4 mg) of 3-O-methyl sorbitollysine. Urine was collected for 3 hours, after which the rats were sacrificed. The tissues to be analyzed were removed and freeze clamped in liquid nitrogen. Perchloric acid extracts of the tissues were used for metabolite analysis. The tissues examined were taken from the brain, heart, muscle, sciatic nerve, spleen, pancreas, liver, and kidney. Plasma was also analyzed.

Data set [2] deals with 3DG. The data set is described as follows: Plasma 3DG levels in diabetic and non-diabetic rats treated with 3-O-methyl sorbitollysine. The class given is in vivo. Particulars: 50 mg/kg injections, within one week. On the procedure: A cohort of twelve diabetic rats was divided into two groups of six. The first group received saline-only injections, and the second received injections of 3-O-methyl sorbitollysine (50 mg/kg body weight) in saline solution. The same procedure was conducted on a cohort of twelve non-diabetic rats.

The nature of data set [3]: Muscle strength of alert diabetic rats. The class given is in vivo. The note with it: measured while alert, preliminary data. The source says: The present invention also encompasses methods for prevention of hair loss associated with or mediated by loss of microcirculation and/or loss of neuro-innervation in populations of aging, sclerodermic and/or in diabetic individuals. This is because 3DG is a known precursor to the formation of AGEs which are known to be causally connected to the development of neuropathy. […] This supports the concept that maintenance of nerve conduction and microcirculation that supports nerve innervation is deleteriously affected not only by AGEs, but also 3DG. Similarly, where 3DG would cause blockage of the microcirculation that supports nerve innervation of the hair follicle, the hair follicle will atrophy and die, as is the case in neuropathy.Accordingly, the present invention includes methods for preventing hair loss, where such hair loss is associated with or mediated by the presence of 3DG in the skin proximal to a hair follicle/shaft.
Skin elasticity measurements were also taken on the test subjects as described above, but without sedating the test animals before measurement. FIG. 15 illustrates skin elasticity measurements taken on the hind leg of the test subjects while the subjects were alert and being restrained by a technician.
In these experiments, the animals were fiercely fighting restraint and the results are different.

The nature of data set [4]: Skin elasticity (vacuum pull needed to displace skin) in STZ-diabetic and normal rats. Particulars: 50 mg/kg daily subcutaneous, eight weeks. The class given is in vivo. On the procedure: Experiments were performed to determine the effects of DYN 12 on the loss of skin elasticity associated with diabetes. To this end, two groups of STZ-diabetic rats and two groups of normal rats were subjected to treatment with DYN 12 or saline. One group of STZ-diabetic rats (n=9) received daily subcutaneous injections of DYN 12 at 50 mg/kg for eight weeks, as did one group of normal rats (n=6). A group of control diabetic rats (n=10) and a group of normal rats (n=6) received saline instead of DYN 12. One rat was removed from the diabetic DYN 12 group after 2 weeks because its blood glucose readings were inconsistent (too low) with other diabetic rats.
A non-invasive procedure based on CyberDERM, Inc. technology utilizing a skin elasticity measurement device was used to test the effects of DYN 12 treatment on skin elasticity. The procedure provides for non-invasive measurement of skin elasticity based upon the amount of vacuum pull required to displace skin. A suction cup probe is adhered to an area of shaved skin in order to form an airtight seal. Then, a vacuum is applied to the area of the skin inside the suction cup until the skin is displaced past a sensor located inside the probe. Accordingly, the more pressure that is required to displace the skin, the less elastic the skin is.

The subject of data set [5] is mouse mesangial cells. Briefly: Type IV collagen production in kidney cells in vitro. The data set is classed as cell-based. Here is the method:
Type IV collagen production was measured in mouse mesangial cells. Controls (grown with […]) produced 300 ng of Type IV collagen per 10,000 cells, whereas fructoselysine treated cells (5 or 10 mM fructoselysine with 10 mM glucose) produced 560 and 1100 ng/10,000 cells.

Details of data set [6]: species or system rats. Particulars: rat, in vivo. On the procedure: Two rats were injected daily with 5 μmols of either FL or mannitol (used as a control) for 5 days. The animals were sacrificed and the kidneys removed and dissected into the cortex and medulla. Tissues were homogenized in 5 volumes of 50 mM Tris-HCl containing 150 mM KCl, 15 mM MgCl2 and 5 mM DTT, pH 7.5. Cellular debris was removed by centrifugation at 10,000×g for 15 minutes, and the supernatant was then centrifuged at 150,000×g for 70 minutes. The soluble proteins were analyzed by SDS PAGE on 12% polyacrylamide gels as well as on 4-15 and 10-20% gradient gels.

On the set-up of data set [7]: species or system human. The note with it: in vivo. On the procedure: Volunteers spent two days on a fructoselysine-free diet and then consumed 22.5 g of the food product prepared as described herein, thus effectively receiving a 2 gram dose of fructoselysine. Urine was collected at 2 hour intervals for 14 hours and a final collection was made at 24 hours. FL was measured by HPLC with a Waters 996 diode Array using a Waters C18 Free Amino Acid column at 46° C. and a gradient elution system of acetonitrile-methyl alcohol-water (45:15:40) into acetonitrile-sodium acetate-water (6:2:92) at 1 ml/min. Quantitation employed an internal standard of meglumine. 3DF was measured by HPLC after deionization of the sample. Analyses were performed on a Dionex DX-500 HPLC system employing a PA1 column (Dionex) and eluting with 32 mM sodium hydroxide at 1 ml/min. Quantitation was performed from standard curves obtained daily with synthetic 3DF. 3DG was measured by GC-MS after deionization of the sample. 3DG was derivatized with a 10-fold excess of diaminonaphthalene in PBS. Ethyl acetate extraction gave a salt free fraction which was converted to the trimethyl silyl ethers with Tri-Sil (Pierce). Analysis was performed on a Hewlett-Packard 5890 selected ion monitoring GC-MS system. […] Quantitation of 3DG employed selected ion monitoring using an internal standard of U-13C-3DG.

The target of data set [8] is T1, Calf skin collagen Type 1 (Bos taurus, UniProt P02453+P02465).
T1 construct: Calf skin collagen Type 1 (1.3 mg; Sigma); purchased Sigma; host or cells: calf skin (tissue-derived)
T1 sequence (P02453 162-1217 limits assumed): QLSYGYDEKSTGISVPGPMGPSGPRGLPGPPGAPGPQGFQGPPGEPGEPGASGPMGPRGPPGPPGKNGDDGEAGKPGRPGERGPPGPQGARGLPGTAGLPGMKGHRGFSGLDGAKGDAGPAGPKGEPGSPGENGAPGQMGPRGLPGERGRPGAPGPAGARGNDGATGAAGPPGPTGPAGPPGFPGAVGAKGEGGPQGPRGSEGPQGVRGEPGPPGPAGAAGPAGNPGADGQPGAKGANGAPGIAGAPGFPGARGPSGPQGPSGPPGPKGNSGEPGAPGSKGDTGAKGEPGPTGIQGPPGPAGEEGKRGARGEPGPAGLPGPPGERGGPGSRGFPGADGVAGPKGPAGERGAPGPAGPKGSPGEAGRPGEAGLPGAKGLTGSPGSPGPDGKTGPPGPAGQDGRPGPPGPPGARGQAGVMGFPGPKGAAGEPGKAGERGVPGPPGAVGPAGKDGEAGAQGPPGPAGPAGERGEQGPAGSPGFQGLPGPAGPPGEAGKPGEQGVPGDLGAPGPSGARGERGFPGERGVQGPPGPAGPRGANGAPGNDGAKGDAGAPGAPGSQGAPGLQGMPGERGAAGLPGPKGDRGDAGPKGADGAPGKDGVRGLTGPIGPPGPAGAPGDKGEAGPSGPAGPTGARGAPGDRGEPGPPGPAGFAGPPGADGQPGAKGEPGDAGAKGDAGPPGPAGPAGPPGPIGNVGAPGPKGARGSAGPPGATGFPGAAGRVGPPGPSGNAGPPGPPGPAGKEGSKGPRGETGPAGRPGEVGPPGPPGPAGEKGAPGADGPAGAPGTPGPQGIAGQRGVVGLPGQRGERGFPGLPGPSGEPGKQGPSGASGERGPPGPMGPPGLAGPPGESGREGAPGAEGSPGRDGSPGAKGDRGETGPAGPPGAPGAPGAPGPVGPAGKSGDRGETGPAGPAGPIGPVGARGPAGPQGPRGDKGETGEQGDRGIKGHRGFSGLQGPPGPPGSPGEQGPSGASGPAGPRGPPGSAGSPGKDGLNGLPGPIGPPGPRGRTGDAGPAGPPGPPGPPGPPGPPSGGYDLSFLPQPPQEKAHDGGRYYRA
T1 sequence (P02465 80-1117 limits assumed): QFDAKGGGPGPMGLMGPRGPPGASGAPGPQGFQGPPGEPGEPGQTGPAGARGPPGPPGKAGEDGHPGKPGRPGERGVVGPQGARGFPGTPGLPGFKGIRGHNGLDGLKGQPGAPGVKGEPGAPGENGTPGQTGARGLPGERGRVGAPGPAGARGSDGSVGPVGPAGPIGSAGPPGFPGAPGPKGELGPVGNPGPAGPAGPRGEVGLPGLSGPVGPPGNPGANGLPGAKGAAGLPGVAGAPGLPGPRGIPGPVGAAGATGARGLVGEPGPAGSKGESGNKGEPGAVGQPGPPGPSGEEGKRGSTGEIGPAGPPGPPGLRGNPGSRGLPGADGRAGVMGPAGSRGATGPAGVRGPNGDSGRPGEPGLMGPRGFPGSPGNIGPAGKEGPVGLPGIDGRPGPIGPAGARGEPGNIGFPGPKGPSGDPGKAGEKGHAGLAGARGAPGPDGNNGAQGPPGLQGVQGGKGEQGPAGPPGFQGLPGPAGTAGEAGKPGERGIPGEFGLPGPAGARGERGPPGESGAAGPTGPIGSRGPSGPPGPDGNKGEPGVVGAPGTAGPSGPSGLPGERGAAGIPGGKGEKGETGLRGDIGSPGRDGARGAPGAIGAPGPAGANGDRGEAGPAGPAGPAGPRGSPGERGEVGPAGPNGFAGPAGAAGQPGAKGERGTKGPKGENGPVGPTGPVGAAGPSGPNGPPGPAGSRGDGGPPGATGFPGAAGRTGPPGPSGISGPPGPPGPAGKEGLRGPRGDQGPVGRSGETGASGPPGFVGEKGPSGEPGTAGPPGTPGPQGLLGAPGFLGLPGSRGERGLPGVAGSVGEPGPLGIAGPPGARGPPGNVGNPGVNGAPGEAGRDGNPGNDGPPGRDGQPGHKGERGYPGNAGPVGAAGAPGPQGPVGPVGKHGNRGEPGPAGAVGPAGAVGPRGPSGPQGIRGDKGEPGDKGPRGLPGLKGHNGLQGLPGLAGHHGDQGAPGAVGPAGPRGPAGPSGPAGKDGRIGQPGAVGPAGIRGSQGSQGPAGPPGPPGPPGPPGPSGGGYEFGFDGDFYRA
Briefly: 3DG-induced collagen crosslinking, CNBr digestion and SDS-PAGE. The class given is biochemical. Particulars: 37° C., 24 hours. Here is the method: Collagen type I was treated with 3DG in the presence or absence of arginine. The samples were subjected to cyanogen bromide (CNBr) digestion, electrophoresed on a 16.5% SDS Tris-tricine gel, and then the gels were processed using silver stain techniques to visualize the proteins. Lane 1 contains molecular weight marker standards. Lanes 2 and 5 contain 10 and 20 μl of the collagen mixture following CNBr digestion. Lanes 3 and 6 contain the collagen mixture treated with 3DG and then digested with CNBr, and loaded at 10 and 20 μl, respectively. Lanes 4 and 7 contain the mixture of collagen incubated with 5 mM 3DG and 10 mM arginine and then digested with CNBr, and loaded at 10 and 20 μl, respectively.
Collagen I was incubated in the presence or absence of 3DG in vitro. Calf skin collagen Type 1 (1.3 mg; Sigma) was incubated in 20 mM Na-phosphate buffer, pH 7.25, either alone, with 5 mM 3DG, or with 5 mM 3DG plus 10 mM arginine, in a total volume of 1 ml at 37° C. for 24 hours and then frozen and lyophilized. The residue was dissolved in 0.5 ml of 70% formic acid and cyanogen bromide was added (20:1, w/w). This solution was incubated at 30° C. for 18 hours. […] The extent of collagen crosslinking was determined by applying equal volumes of sample and analyzing by SDS-PAGE electrophoresis (16.5% Tris-tricine gel), as determined by the effects of 3DG on the migration of collagen.

Values joined by “and” are separate entries in the source; they are usually repeats but may differ in a detail not shown here. Equal entries are not always repeated.

For the compound `COC(C(O)CNCCCCC(N)C(=O)O)C(O)C(O)CO` (stereo not drawn) [DYN 12, 3-O-methyl sorbitollysine], in data set [1] (3 hours after i.p. injection), the “compound contained in plasma” value is listed as “plasma did not”. Also, in data set [1] (individual rats, urine plus kidneys, 3 hours, listed as 3OMeSL), the “% 3OMeSL recovered (injected dose recovered from urine and kidney)” value was 91.5% and 38.8% and 96.4% and 61.2% and 53.0% and 53.3%. Further, the “plasma 3DG level” value in data set [2] (Diabetic rats) is 0.44 ± 0.10 µM; in data set [2] (Non-diabetic rats), 0.13 ± 0.02 µM. The “muscle strength vs diabetic rats not so treated” value in data set [3] is reported as “stronger muscle strength”. In addition, in data set [4], the “amount of pressure needed to displace the skin” value came to 3.2±1.2 kPA.
Consider `N[C@@H](CCCCNCC(=O)[C@@H](O)[C@H](O)[C@H](O)CO)C(=O)O` [fructoselysine, 1-deoxy-1-(e-aminolysine)-fructose], for which the entries for the “Type IV collagen produced” value in data set [5] (5 mM fructoselysine with 10 mM glucose) and in data set [5] (10 mM fructoselysine with 10 mM glucose) were 560 ng/10,000 cells and 1100 ng/10,000 cells, respectively. Further, the “soluble kidney proteins on SDS PAGE vs mannitol-injected animal” value in data set [6] is “lower molecular weight bands were missing or visually reduced”. In addition, the “time of peak 3DF excretion in urine after the FL bolus” value in data set [7] is “about 4 hours”.
As to `O=CC(=O)C[C@H](O)[C@H](O)CO` [3DG, 3-deoxyglucosone], the “collagen crosslinking (migration on SDS-PAGE)” value in data set [8] (5 mM 3DG) is reported as “caused the collagen to migrate as if it had a higher molecular weight”.
Turning to `N=C(N)NCCC[C@H](N)C(=O)O` [arginine], the “inhibition of 3DG induced collagen crosslinking (high molecular weight bands)” value in data set [8] (5 mM 3DG plus 10 mM arginine) is “fewer high molecular bands”.

Values taken from patent publication US7671019B2, “3-deoxyglucosone and skin” (Dynamis Therapeutics, Inc., priority 2002, dated 2010).
